Results taken from the NIST ThermoML archive (doi:10.1016/j.jct.2018.04.009).
Numbers after ± are expanded uncertainties.

Legend:
[1] = Crystal; Adiabatic calorimetry
[2] = molar heat capacity at constant pressure; conditions: 101.33 kPa, Small (less than 1 g) adiabatic calorimetry
[3] = Molar enthalpy of transition or fusion; conditions: Crystal; Adiabatic calorimetry

c1ccc(Oc2ccccc2)cc1 [diphenyl ether]
Conditions	Molar enthalpy of transition or fusion [kcal/mol]	Triple point temperature [K]
[1]	–	299.96 ± 0.05
[3]	4.092 ± 0.0287	–

[2]
Conditions	molar heat capacity at constant pressure [J/K/mol]
282.08 K, Crystal	202.2 ± 1.4
283.34 K, Crystal	202.92 ± 1.4
285.84 K, Crystal	203.66 ± 1.4
287.09 K, Crystal	205.43 ± 1.4
288.33 K, Crystal	206.1 ± 1.4
289.59 K, Crystal	207.25 ± 1.4
290.84 K, Crystal	208.01 ± 1.4
292.1 K, Crystal	209.17 ± 1.4
321.46 K, Liquid	276.46 ± 1.9
323.17 K, Liquid	278.21 ± 1.9
324.89 K, Liquid	278.93 ± 1.9
326.63 K, Liquid	279.41 ± 1.9
328.37 K, Liquid	279.66 ± 1.9
330.1 K, Liquid	280.76 ± 1.9
331.85 K, Liquid	281.87 ± 1.9
333.61 K, Liquid	282.69 ± 1.9
335.38 K, Liquid	283.24 ± 1.9
